Patent publication US20240382506A1, “Means and Methods to Regulate Gut Dysbiosis” (VIB VZW, priority 2021, published 2024)

Experiments:
[1] = test system: Salmonella; experiment: Salmonella growth in CT26 cell supernatants; type: cell-based, Salmonella enterica serovar Typhimurium
Method: (§1) All mammalian cells were cultured at 5×10^5 cells per ml. Cells were washed with 1× PBS before induction of cell death in the indicated medium. Jurkat cells were cultured in suspension at 5×10^5 cells/ml. After induction of cell death, supernatant was collected and spun at 330 rcf for 5 minutes to remove cellular debris. Unless stated otherwise, the resulting supernatant was filtered using a 0.2 μm syringe filter and either used immediately or frozen at −20° C. for later use. Cells were stained with Annexin V (AV) conjugated to APC or Pac Blue and either Sytox blue, Yoyo-1, or 7AAD (DNA binding dyes) for 15 minutes at room temperature in Annexin V binding buffer (BD). Flow cytometry was performed using the Attune NxT (Invitrogen), the FACS Calibur (BD), the LSR Fortessa (BD), or the LSRII (BD). Data were analyzed using FlowJo v.10 software. All independent experiment values shown are the average values of technical duplicates. ‘% Annexin V^+’ cells include Annexin V^+DNA dye^− and Annexin V^+DNA dye^+ cell populations.
FADD-dependent apoptosis: CT26:FADD clones were incubated with 1 μg/ml doxycycline for 16 hours to induce expression of the construct. Doxycycline was washed away before addition of 10 nM B/B Homodimerizer for 5 hours to induce death. For Caspase inhibition studies, cells were incubated with 30 μM QVD for 1 hour prior to B/B administration and QVD was maintained in the media. […]
OD600 measurements: 4 ml of supernatant or media controls were inoculated with 1-2×10^7 CFU/ml of the indicated bacterial species. Cultures were grown at 37° C. with 200 rpm agitation (aerobic) and bacterial growth was quantified by OD600 measurements using the Ultrospec 10 (VWR) at the indicated time points. […]
(§2) CFU/ml values: 500 μl of supernatant or media controls were inoculated with 1×10^3 CFU of the indicated strain. Cultures were grown at 37° C. with 200 rpm agitation (aerobic) and growth was assessed at the indicated time by serially diluting with 1× PBS and plating onto LB agar (in vitro supernatants) or MacConkey agar (ex vivo primary colonocyte supernatants) to obtain CFU/ml values.

[2] = target: membrane pannexin-1 channels (Homo sapiens, UniProt Q96RD7); conditions: described in literature; cited from earlier work
[3] = test system: CT26:FADD cells; experiment: CT26:FADD cell death (flow cytometry); type: cell-based, murine
Method: as §1
FADD-dependent apoptosis: CT26:FADD clones were incubated with 1 μg/ml doxycycline for 16 hours to induce expression of the construct. Doxycycline was washed away before addition of 10 nM B/B Homodimerizer for 5 hours to induce death. […]

[4] = test system: Salmonella; type: cell-based, Salmonella enterica serovar Typhimurium
Method: Full length colons (from cecum to rectum) were excised from the indicated genotype of mice and cut open longitudinally to flay the colon open. Opened colons were vortexed 2-3 times in sterile 1× PBS to remove fecal content. Colons were then cut horizontally into 5-7 mm long pieces and incubated in DMEM +10% FBS and an antibiotic cocktail containing Ampicillin (100 μg/ml), Chloramphenicol (20 μg/ml), Kanamycin (50 μg/ml), and Streptomycin (100 μg/ml) for 2 hours at 37° C. with 5% CO2. Colonic pieces were then washed 3 times in sterile 1× PBS to remove any traces of the antibiotic cocktail. Individual colonic pieces were then incubated in 1.5 ml Eppendorf tubes containing 500 μl of DMEM+10% FBS+/−2 μM Stauro for 8 hours or +/−20 μg/ml Doxorubicin for 6 hours. For caspase inhibition, 30 μM QVD was added to the 2-hour antibiotic treatment step and was maintained throughout death induction. After death induction, colonic explants were spun at max speed for 5 minutes using a tabletop centrifuge and supernatant was collected. Unfiltered supernatant was used immediately or frozen −20° C. for subsequent use. […] All subsequent experiments (cell death, bacterial growth) utilized explants extracted from a minimum of 3 mice.
as §2

[5] = Doxorubicin-induced gastrointestinal toxicity in mice; type: in vivo
Method: (§3) Doxorubicin treatment. Doxorubicin was given as a single intraperitoneal (ip) injection at 15 mg/kg of mouse body weight while vehicle control (water) was given at similar volumes (approximately 300 μl volumes of water or 1 mg/ml Doxorubicin solution). The next day, mice were infected with 1×10^9 CFU of Salmonella (either single strain of competitive infections, as described above) or 1×10^9 CFU of E. coli. Tissues were harvested at day 1 post-infection and weight loss, total Salmonella burden, and competitive indices were calculated as above. Total Enterobacteriaceae burden, including E. coli, was assessed by plating tissue lysates on MacConkey agar without antibiotics. Uninfected controls were given 1× PBS via oral gavage instead of bacteria, and Endogenous Enterobacteriaceae burden was assessed by plating tissue lysates on MacConkey agar without antibiotics.

[6] = test system: Enterobacteriaceae; experiment: Bacterial growth in media with or without Doxo; type: cell-based, Salmonella and E. coli (strain HS); conditions: 9 hours aerobic growth in media with or without Doxo
Method: as §2

[7] = test system: Salmonella; experiment: Salmonella infection after doxorubicin treatment in mice; type: in vivo, Salmonella enterica serovar Typhimurium; conditions: day 1 post-infection
Method: Salmonella-induced colitis. Littermate, sex, and age-matched mice were infected using the Salmonella model of colitis^34. Specific pathogen free (SPF) mice were given a single dose of 20 mg streptomycin via oral gavage (100 μl of 200 mg/ml streptomycin dissolved in water) one day prior to infection. Mice were infected with 1×10^7 CFU per mouse resuspended in 1× PBS via oral gavage. For competitive infections, polar deletions containing the chromosomally inserted kanamycin resistance gene were used^56. Mice were infected with 1×10^7 CFU per strain per mouse, for a 2×10^7 CFU per mouse total inoculum in 100 μl. […] The input ratio of each strain was calculated by plating the infective dose on agar plates containing streptomycin (total inoculum) and agar plates containing streptomycin plus kanamycin (mutant strain). WT Salmonella was thus calculated as (total inoculum)−(mutant inoculum) and input ratio was calculated as (WT Salmonella)/(mutant Salmonella inoculum) with a desired input equal to 1. Mouse body weight was measured daily and ‘% body weight’ was calculated as (daily weight)/(day 0 starting weight). […] CFU per gram of tissue were calculated by plating serial dilutions of tissue homogenates on MacConkey agar containing streptomycin and MacConkey agar containing streptomycin and kanamycin. […]

[8] = test system: E. coli; experiment: E. coli infection after doxorubicin treatment in mice; type: in vivo; conditions: C57BL/6 mice; data not shown
Method: as §3

[9] = test system: C57BL/6 colonic explants; experiment: Caspase-3 activation in colonic explants (colorimetric assay); type: cell-based, mouse; conditions: 20 μg/ml Doxo, 6 hours ex vivo
Method: Full length colons (from cecum to rectum) were excised from the indicated genotype of mice and cut open longitudinally to flay the colon open. Opened colons were vortexed 2-3 times in sterile 1× PBS to remove fecal content. Colons were then cut horizontally into 5-7 mm long pieces and incubated in DMEM +10% FBS and an antibiotic cocktail containing Ampicillin (100 μg/ml), Chloramphenicol (20 μg/ml), Kanamycin (50 μg/ml), and Streptomycin (100 μg/ml) for 2 hours at 37° C. with 5% CO2. Colonic pieces were then washed 3 times in sterile 1× PBS to remove any traces of the antibiotic cocktail. Individual colonic pieces were then incubated in 1.5 ml Eppendorf tubes containing 500 μl of DMEM+10% FBS+/−2 μM Stauro for 8 hours or +/−20 μg/ml Doxorubicin for 6 hours. For caspase inhibition, 30 μM QVD was added to the 2-hour antibiotic treatment step and was maintained throughout death induction. […]
Caspase-3 activation: Following removal of the supernatant, explant pieces were assessed for caspase-3 activity via the Caspase-3 Colorimetric Activity Assay Kit, DEVD (Sigma) according to the manufacturer's instructions. Colorimetric values were obtained at 405 nm using the iMark™ microplate reader (BioRad) and arbitrary units were calculated from a standard curve using the provided pNA standard.

[10] = test system: endogenous Enterobacteriaceae; experiment: Endogenous Enterobacteriaceae burden in uninfected doxorubicin-treated mice; type: in vivo; conditions: uninfected C57BL/6 mice, 2 days post-treatment
Method: as §3

[11] = test system: Salmonella; experiment: Salmonella gene expression (qPCR) in mammalian cell supernatants; type: cell-based, Salmonella enterica serovar Typhimurium; conditions: apoptotic supernatants from CT26 and HCT116 cells
Method: For all gene expression studies, bacterial cultures were grown to mid logarithmic growth phase (OD600=0.4−0.6), spun down at max speed, and then resuspended in TRIzol™ reagent (ThermoFisher) for immediate extraction or frozen at −80° C. Bacterial RNA was extracted and DNA removed as described using the RiboPure RNA Purification Kit (Thermo Fisher). For RNAseq experiments, ribosomal RNA was removed using Ribo-zero kits (Illumina). For all RNAseq data, sample groups were analyzed in quadruplicates and reads were mapped to the Salmonella Typhimurium SL1344 reference genome (ASM21085v2, EnsEMBL 39).
qPCR: cDNA synthesis was performed using the SensiFast cDNA synthesis kit (GC Biotech). qPCR primers were designed using NCBI Primer Blast. The ΔΔCT values for each independent biological replicate were calculated twice, first using the Salmonella housekeeping gene gmk^55 and then the housekeeping gene strB^56 and the two ΔΔCT values were averaged. Relative fold expression was calculated such that the average of the indicated controls was equal to 1. The endogenous controls for HS E. coli samples were gmk and rpoA^57. All independent experiment values shown are the average values of technical duplicates.

[12] = test system: CT26 cells; experiment: Pyruvate concentration in CT26 supernatants; type: cell-based, murine; conditions: CT26 cells triggered with staurosporine
Method: Shikonin: CT26 cells were pretreated with 5 μM Shikonin (or DMSO vehicle control) for 1 hour. Cells were then washed once with PBS before replacing with fresh media containing the indicated trigger of cell death +/−5 μM Shikonin.
Metabolite detection: Pyruvate, formate, or fructose 1,6-bisphosphate concentrations were determined using the appropriate detection kit per the manufacturer's instructions. For these experiments, mammalian cells were cultured in DMEM without phenol red supplemented with 10% FBS.

[13] = single ip 15 mg/kg, followed by oral infection
[14] = uninfected mice, 2 days post-treatment

membrane pannexin-1 channels, sequence (Q96RD7 whole entry): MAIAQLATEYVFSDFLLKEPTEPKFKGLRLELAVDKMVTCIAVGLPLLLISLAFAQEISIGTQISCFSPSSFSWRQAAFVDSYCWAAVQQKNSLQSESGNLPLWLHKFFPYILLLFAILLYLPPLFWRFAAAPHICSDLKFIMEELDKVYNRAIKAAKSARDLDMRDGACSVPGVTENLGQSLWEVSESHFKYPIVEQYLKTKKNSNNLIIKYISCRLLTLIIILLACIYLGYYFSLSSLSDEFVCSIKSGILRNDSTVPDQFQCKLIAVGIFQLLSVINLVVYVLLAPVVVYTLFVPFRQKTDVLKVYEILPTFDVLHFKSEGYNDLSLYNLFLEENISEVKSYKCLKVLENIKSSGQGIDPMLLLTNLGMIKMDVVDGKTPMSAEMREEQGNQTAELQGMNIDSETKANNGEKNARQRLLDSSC

## C=CCc1cccc(/C=N/NC(=O)CN2CCN(Cc3ccccc3)CC2)c1O [Pac-1]
[1]; 50 μM Pac-1 24 hours, OD600
  bacterial growth in supernatants from treated CT26 cells: enhanced bacterial growth

## CCCN(CCC)S(=O)(=O)c1ccc(C(=O)O)cc1 [Probenecid]
[2]
  membrane pannexin-1 channel inhibition: membrane pannexin-1 channel inhibitor

## CC(C)[C@H](NC(=O)c1ccc2ccccc2n1)C(=O)N[C@@H](CC(=O)O)C(=O)COc1c(F)cccc1F [QVD]
[3]; 30 μM QVD, 5 hours post-death induction with B/B dimerizer
  cell death: reduced cell death
[3]; QVD, data not shown
  apoptotic caspase activation: reduced
[4]; colonic explants treated with QVD and Stauro together, 30 μM QVD
  Salmonella growth in dying colonocyte supernatant with caspase inhibition: restricted Salmonella growth to live supernatant control levels
[1]; CT26:FADD cells treated with QVD, 8 hours aerobic growth
  Salmonella growth in CT26:FADD supernatants with caspase inhibition: reduced Salmonella growth back to media and live cell supernatant controls

## C[C@H](Cn1cnc2c(N)ncnc21)OCP(=O)(O)O [Tenofovir]
[2]
  membrane pannexin-1 channel inhibition: inhibit membrane pannexin-1 channels

## N[C@@H]1[C@H]2CN(c3nc4c(cc3F)c(=O)c(C(=O)O)cn4-c3ccc(F)cc3F)C[C@@H]12 [Trovafloxacin]
[2]
  membrane pannexin-1 channel inhibition: membrane pannexin-1 channel inhibitor

## COc1cccc2c1C(=O)c1c(O)c3c(c(O)c1C2=O)C[C@@](O)(C(=O)CO)C[C@@H]3O[C@H]1C[C@H](N)[C@H](O)[C@H](C)O1 [doxorubicin]
[5]; [13]
  cecal weight: significant reduction in cecal weight
  colon length: shortening of the colon
[5]; [14]
  caspase-3 activation in the ilea: caspase-3 activation in the ilea
  damage to ceca and colons: sufficient to induce damage to the ceca and colons
[6]
  direct action on bacterial growth (CFU): direct antimicrobial action
[7]; C57BL/6 mice
  bacterial burden following infection with Salmonella: staggering increases in bacterial burden
[7]; control mice after doxorubicin treatment
  WT Salmonella compared to ΔpflB mutant (competitive index): significantly enriched
[8]
  bacterial burden following infection with E. coli: staggering increases in bacterial burden
[9]
  caspase-3 activation: induced caspase-3 activation
[4]; 20 μg/ml Doxo ex vivo, 9 hours aerobic growth
  Salmonella outgrowth in supernatants of treated colonic explants: directly enhanced Salmonella outgrowth
[10]
  endogenous Enterobacteriaceae CFU: potent expansion of the endogenous Enterobacteriaceae

## CC(=O)S[C@@H]1CC2=CC(=O)CC[C@]2(C)[C@H]2CC[C@@]3(C)[C@@H](CC[C@@]34CCC(=O)O4)[C@H]12 [spironolactone, Spironolactone]
[2]
  membrane pannexin-1 channel inhibition: membrane pannexin-I channel inhibitor

## CN[C@@H]1C[C@H]2O[C@@](C)([C@@H]1OC)n1c3ccccc3c3c4c(c5c6ccccc6n2c5c31)C(=O)NC4 [staurosporine, Staurosporine]
[11]
  Salmonella cadB expression: significantly increased the expression
  Salmonella pflB expression: significantly increased the expression
[4]; C57BL/6 colonic explants, 2 μM Stauro 8 hours ex vivo, CFU after 9 hours aerobic growth
  Salmonella growth in apoptotic supernatants compared to live (vehicle-treated) colonocyte supernatants: ~10 fold
[12]
  pyruvate released compared to live cell supernatants or fresh media controls: significantly higher levels of pyruvate
[1]; 1 μM staurosporine 24 hours, 9 hours aerobic growth
  Salmonella growth in supernatants of apoptotic CT26 cells compared to control treatments: strongly induced Salmonella growth
